One assay has as its target EGFR^Del19/T790M/C797S (Homo sapiens, UniProt P00533, C797S/DEL746-750/T790M). In words: EGFR inhibitory activity assay (TK-substrate-biotin/ATP, 665/615 ratio). In kind it is biochemical. The conditions noted are these: kinase inhibition. The method, then:
EGFR Inhibitory Activity Assay
(2) The plate was sealed, and centrifuged at 1,000 g for 1 min;
(4) 5 μl of the 2×EGFR protein working solution was added to the 384-well plate from step (2), centrifuged at 1,000 g for 30 s, and allowed to stand at room temperature (mixed thoroughly) for 10 min;
(6) 5 µL of the TK-substrate-biotin and ATP (the mixture prepared in step (5)) was added to the 384-well plate from step (4) to initiate the reaction;
(7) The mixture was centrifuged at 1,000 g for 30 s; the plate was sealed, and allowed to stand (and reacted) at room temperature for 40 min;
(10) The mixture was centrifuged at 1,000 g for 30 s, and allowed to stand (reacted) at room temperature for 1 h;
(§1) Formula of inhibition rate (%): […]
(§2) The nonlinear regression curve (dose response-variable slope) between the value of inhibition rate (%) and the logarithm of compound concentration was fitted with graphpad prism 8.0, the effect dose curve of compound was drawn, and the IC50 value was calculated.

The target in a further assay is EGFR^L858R/T790M/C797S (Homo sapiens, UniProt P00533, C797S/L858R/T790M). Described as above. In kind it is biochemical. The conditions noted are these: kinase inhibition. In short, it runs like this:
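HTRF kinase assay: enzyme preincubated with compound 10 min at room temperature, then reacted with biotinylated TK substrate and ATP for 40 min at room temperature.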

The target in a further assay is ALK (Homo sapiens, UniProt Q9UM73). In words: Assay of activity on ALK kinase. The conditions noted are these: kinase inhibition. In kind it is biochemical. On the procedure: (§3) Assay of activity on ALK kinase
(§4) (1) A compound stock solution was prepared;
(§5) (2) The compound stock solution was diluted 3× to obtain a compound dilution;
(§6) (5) 5 μl of the 2× kinase working solution was added to the reaction plate, centrifuged at 1,000 rpm for 1 min, and incubated at 25° C. for 15 min;
(§7) (7) 5 μl of the TK-substrate-biotin and ATP (the mixture prepared in step (6)) was added to initiate the reaction;
(§8) (8) The mixture was centrifuged at 1,000 g for 30 s; the plate was sealed, and incubated at 25° C. for 60 min;
(§9) (11) The mixture was centrifuged at 1,000 g for 1 min, and incubated at 25° C. for 60 min;
as §1, §2
(§10) Y=Bottom+(Top−Bottom)/(1+10^((LogIC50−X)*Hill Slope))
(§11) X-axis: logarithm of compound concentration; Y axis: inhibition rate ([…])

The target of assay [1] is Ba/F3(EGFR^L858R/T790M/C797S) cells (Homo sapiens, UniProt P00533, T790M/C797S/L858R, cells depend on it). In words: Assay of activity on Ba/F3 cells (CTG, 72 h). In kind it is cell-based. The conditions noted are these: read-out: IC50 (nM) Ba/F3 (EGFR^L858R/T790M/C797S). In short, it runs like this: (§12)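 Ba/F3 cells dependent on each EGFR triple mutant were exposed to 3-fold compound dilutions for 72 h at 37° C, 5% CO2, with CellTiter-Glo luminescence as the read-out.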

A further assay deals with ALK^G1202R (Homo sapiens, UniProt Q9UM73, G1202R). In words: Assay of activity on ALK kinase. In kind it is biochemical. The conditions noted are these: kinase inhibition. On the procedure:
as §3, §4, §5, §6, §7, §8, §9, §1, §2, §10, §11

A further assay has as its target T1, Ba/F3(EML4-ALK) cells (Homo sapiens, UniProt Q9UM73).
T1 construct: fused on or other part: Q9HC35 (Echinoderm microtubule-associated protein-like 4)
In words: Assay of activity on Ba/F3(EML4-ALK) cells (CTG, 72 h). In kind it is cell-based. The conditions noted are these: read-out: IC50 (nM) Ba/F3(EML4-ALK). In short, it runs like this:
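Ba/F3(EML4-ALK) cells, 700 per well, were exposed to 3-fold serial compound dilutions for 72 h at 37° C, 5% CO2, and viability was then read by CTG luminescence.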

Assay [2] has as its target Ba/F3(EGFR^Del19/T790M/C797S) cells (Homo sapiens, UniProt P00533, DEL746-750/T790M/C797S, cells depend on it). In words: Assay of activity on Ba/F3 cells (CTG, 72 h). In kind it is cell-based. The conditions noted are these: read-out: IC50 (nM) Ba/F3 (EGFR^Del19/T790M/C797S). The gist of the method:
as §12

The values below come from US20220306659A1, “COMPOUND INHIBITING AND INDUCING DEGRADATION OF EGFR AND ALK” (BEIJING TIDE PHARMACEUTICAL CO., LTD., priority 2019, published 2022).

ALK, sequence (Q9UM73 19-1620): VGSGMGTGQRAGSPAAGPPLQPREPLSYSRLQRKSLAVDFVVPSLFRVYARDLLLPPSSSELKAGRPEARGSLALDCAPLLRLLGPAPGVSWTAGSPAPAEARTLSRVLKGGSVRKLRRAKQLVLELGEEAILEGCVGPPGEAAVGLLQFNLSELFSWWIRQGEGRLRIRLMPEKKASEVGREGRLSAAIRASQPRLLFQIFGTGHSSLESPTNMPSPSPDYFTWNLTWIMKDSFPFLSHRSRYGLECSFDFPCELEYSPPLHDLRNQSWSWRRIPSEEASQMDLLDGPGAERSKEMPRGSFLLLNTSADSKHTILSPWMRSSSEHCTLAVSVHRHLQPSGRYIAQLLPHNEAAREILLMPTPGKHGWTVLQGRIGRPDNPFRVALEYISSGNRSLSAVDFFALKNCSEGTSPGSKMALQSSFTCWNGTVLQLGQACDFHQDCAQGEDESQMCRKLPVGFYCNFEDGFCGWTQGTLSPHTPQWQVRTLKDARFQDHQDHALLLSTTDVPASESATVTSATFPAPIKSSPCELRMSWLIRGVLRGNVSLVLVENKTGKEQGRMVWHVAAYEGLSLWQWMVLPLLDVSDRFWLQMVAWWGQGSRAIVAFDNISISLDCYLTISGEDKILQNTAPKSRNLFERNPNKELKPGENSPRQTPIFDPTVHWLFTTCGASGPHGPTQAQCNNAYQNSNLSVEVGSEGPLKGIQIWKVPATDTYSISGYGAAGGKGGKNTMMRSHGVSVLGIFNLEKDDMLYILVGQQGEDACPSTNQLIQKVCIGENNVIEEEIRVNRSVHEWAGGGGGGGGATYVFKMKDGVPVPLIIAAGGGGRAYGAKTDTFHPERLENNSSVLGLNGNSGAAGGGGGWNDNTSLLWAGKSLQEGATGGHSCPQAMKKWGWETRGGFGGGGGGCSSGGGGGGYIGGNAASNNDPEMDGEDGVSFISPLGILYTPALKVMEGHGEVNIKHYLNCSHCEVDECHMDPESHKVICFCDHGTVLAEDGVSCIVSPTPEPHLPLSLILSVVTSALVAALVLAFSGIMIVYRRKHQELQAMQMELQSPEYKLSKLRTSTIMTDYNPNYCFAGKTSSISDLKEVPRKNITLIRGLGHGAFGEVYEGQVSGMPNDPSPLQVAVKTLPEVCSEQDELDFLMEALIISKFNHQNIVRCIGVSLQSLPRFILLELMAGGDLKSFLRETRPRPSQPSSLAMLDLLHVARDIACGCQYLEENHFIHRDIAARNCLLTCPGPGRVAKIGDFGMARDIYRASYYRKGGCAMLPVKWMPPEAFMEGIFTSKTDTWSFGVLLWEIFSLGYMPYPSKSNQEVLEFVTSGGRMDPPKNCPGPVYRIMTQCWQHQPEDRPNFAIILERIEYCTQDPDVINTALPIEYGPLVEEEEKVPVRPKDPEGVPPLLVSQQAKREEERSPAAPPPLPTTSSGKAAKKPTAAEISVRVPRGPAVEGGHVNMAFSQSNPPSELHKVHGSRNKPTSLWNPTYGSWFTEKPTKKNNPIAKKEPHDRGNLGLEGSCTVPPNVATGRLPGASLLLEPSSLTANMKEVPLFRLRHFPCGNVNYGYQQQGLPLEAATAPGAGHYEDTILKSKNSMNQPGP
Ba/F3(EGFR^L858R/T790M/C797S) cells, sequence (P00533 whole entry T790M/C797S/L858R): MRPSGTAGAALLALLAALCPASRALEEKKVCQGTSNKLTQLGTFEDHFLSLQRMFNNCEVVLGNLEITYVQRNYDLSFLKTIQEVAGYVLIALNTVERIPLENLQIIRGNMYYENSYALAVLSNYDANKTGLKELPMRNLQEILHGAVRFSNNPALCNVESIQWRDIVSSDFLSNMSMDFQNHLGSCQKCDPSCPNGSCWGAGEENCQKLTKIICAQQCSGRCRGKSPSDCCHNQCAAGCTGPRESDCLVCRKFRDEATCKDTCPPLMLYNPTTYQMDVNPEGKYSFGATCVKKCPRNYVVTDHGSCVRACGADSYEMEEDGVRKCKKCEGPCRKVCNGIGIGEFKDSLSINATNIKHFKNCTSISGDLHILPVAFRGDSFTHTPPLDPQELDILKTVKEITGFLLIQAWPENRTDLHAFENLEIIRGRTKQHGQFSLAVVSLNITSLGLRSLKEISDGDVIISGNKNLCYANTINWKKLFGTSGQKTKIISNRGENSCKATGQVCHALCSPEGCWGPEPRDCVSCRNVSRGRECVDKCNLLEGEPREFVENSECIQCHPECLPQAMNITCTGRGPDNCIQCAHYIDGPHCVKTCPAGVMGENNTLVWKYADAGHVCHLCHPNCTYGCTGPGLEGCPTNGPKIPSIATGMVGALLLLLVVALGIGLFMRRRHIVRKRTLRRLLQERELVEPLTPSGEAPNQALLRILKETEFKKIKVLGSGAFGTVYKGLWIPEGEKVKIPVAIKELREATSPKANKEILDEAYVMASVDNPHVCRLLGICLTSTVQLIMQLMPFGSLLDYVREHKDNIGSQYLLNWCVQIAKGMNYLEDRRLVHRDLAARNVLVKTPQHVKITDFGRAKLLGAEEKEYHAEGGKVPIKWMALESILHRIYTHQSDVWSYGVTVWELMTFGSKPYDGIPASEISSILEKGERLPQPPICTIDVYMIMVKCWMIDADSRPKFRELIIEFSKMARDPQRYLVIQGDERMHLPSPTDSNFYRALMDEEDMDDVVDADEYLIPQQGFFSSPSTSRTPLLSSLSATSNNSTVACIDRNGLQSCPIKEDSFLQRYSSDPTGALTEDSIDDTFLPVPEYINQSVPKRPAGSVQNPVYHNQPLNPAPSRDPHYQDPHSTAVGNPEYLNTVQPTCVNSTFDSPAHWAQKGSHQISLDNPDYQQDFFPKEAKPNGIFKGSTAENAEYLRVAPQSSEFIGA
Ba/F3(EGFR^Del19/T790M/C797S) cells, sequence (P00533 with tags, fused parts or gaps DEL746-750/T790M/C797S): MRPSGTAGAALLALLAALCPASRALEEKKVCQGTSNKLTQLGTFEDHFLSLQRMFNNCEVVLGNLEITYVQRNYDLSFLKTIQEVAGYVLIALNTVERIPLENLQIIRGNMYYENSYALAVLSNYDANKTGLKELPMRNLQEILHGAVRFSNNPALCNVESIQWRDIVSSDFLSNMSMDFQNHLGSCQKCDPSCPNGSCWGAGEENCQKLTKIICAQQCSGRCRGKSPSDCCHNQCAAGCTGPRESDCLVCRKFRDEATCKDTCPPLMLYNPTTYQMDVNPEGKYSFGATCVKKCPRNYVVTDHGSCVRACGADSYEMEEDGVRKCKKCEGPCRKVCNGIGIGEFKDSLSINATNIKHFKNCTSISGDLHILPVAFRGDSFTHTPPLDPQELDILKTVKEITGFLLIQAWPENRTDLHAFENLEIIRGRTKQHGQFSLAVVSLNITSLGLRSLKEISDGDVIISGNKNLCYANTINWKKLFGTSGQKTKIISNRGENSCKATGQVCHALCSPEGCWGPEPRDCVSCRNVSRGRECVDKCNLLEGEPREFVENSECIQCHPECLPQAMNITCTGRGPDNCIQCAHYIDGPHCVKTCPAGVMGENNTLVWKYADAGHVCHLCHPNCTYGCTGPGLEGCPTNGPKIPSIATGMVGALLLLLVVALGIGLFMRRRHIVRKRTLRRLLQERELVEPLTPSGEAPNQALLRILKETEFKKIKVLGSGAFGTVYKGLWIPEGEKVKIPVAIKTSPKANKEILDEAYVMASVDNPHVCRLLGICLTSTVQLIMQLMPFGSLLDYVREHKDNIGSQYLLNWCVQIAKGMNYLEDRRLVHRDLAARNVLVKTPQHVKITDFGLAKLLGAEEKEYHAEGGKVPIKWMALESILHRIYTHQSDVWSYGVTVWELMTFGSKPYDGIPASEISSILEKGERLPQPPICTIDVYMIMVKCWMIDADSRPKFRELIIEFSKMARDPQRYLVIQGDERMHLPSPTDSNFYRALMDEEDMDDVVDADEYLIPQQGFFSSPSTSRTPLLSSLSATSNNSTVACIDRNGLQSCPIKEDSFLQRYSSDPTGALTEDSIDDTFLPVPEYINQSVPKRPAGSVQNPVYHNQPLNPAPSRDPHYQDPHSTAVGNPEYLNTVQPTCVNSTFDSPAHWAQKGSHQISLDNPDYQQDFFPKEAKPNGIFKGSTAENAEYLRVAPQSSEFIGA
ALK^G1202R, sequence (Q9UM73 19-1620 G1202R): as the sequence (Q9UM73 19-1620) above, with G1184R counted along it
EGFR^Del19/T790M/C797S, sequence (P00533 with tags, fused parts or gaps DEL746-750/T790M/C797S): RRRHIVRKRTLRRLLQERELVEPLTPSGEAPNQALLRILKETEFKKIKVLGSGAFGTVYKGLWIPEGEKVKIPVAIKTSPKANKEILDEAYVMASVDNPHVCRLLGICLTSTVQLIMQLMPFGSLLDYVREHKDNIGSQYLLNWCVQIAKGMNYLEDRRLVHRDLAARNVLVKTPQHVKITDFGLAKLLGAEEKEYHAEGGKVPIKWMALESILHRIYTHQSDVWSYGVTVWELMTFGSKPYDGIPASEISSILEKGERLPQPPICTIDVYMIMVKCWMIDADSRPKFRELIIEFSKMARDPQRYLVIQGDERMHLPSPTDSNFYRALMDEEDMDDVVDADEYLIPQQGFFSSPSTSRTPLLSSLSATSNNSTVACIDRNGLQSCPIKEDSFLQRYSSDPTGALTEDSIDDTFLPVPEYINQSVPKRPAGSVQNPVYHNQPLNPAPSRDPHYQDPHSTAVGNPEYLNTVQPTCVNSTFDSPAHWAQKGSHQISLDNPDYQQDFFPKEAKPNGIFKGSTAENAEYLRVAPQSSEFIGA

What is called IC50 is the concentration needed to halve the response being measured. For the compound `COc1cc(N2CCC(N3CCN(C(=O)CCCCCCc4cccc5c4C(=O)N(C4CCC(=O)NC4=O)C5=O)CC3)CC2)ccc1Nc1ncc(Cl)c(Nc2ccccc2P(C)(C)=O)n1` (stereo not drawn) [Compound A1, 4-(7-(4-(1-(4-((5-chloro-4-((2-(dimethylphosphoryl)phenyl)amino)pyrimidin-2-yl)amino)-3-methoxyphenyl)piperidin-4-yl)piperazin-1-yl)-7-oxoheptyl)-2-(2,6-dioxopiperidin-3-yl)isoindoline-1,3-dione], the IC50 on EGFR^Del19/T790M/C797S lay within 101 to 200 nM; at EGFR^L858R/T790M/C797S, 1 to 100 nM; at ALK, 101 to 200 nM. Further, the GI50 in assay [1] lay in the range of 201 to 300 nM.
As to `COc1cc(N2CCC(N3CCN(C(=O)CCCCCCOc4cccc5c4C(=O)N(C4CCC(=O)NC4=O)C5=O)CC3)CC2)ccc1Nc1ncc(Cl)c(Nc2ccccc2P(C)(C)=O)n1` (stereo not drawn) [Compound A2, 4-((7-(4-(1-(4-((5-chloro-4-((2-(dimethylphosphoryl)phenyl)amino)pyrimidin-2-yl)amino)-3-methoxyphenyl)piperidin-4-yl)piperazin-1-yl)-7-oxoheptyl)oxy)-2-(2,6-dioxopiperidin-3-yl)isoindoline-1,3-dione], the IC50 on EGFR^Del19/T790M/C797S is 101 to 200 nM; on EGFR^L858R/T790M/C797S, 1 to 100 nM; at ALK it was 1 to 100 nM. Moreover, the GI50 in assay [1] was 201 to 300 nM.
Regarding `COc1cc(N2CCC(N3CCN(CCOCCOCCOCCNC(=O)COc4cccc5c4C(=O)N(C4CCC(=O)NC4=O)C5=O)CC3)CC2)ccc1Nc1ncc(Cl)c(Nc2ccccc2P(C)(C)=O)n1` (stereo not drawn) [Compound A3, N-(2-(2-(2-(2-(4-(1-(4-((5-chloro-4-((2-(dimethylphosphoryl)phenyl)amino)pyrimidin-2-yl)amino)-3-methoxyphenyl)piperidin-4-yl)piperazin-1-yl)ethoxy)ethoxy)ethoxy)ethyl)-2-((2-(2,6-dioxopiperidin-3-yl)-1,3-dioxoisoindolin-4-yl)oxy)acetamide], the IC50 on EGFR^Del19/T790M/C797S and on EGFR^L858R/T790M/C797S was 1 to 100 nM in each case.
With `COc1cc(N2CCC(N3CCN(CCCCCCCNc4cccc5c4CN(C4CCC(=O)NC4=O)C5=O)CC3)CC2)ccc1Nc1ncc(Cl)c(Nc2ccccc2P(C)(C)=O)n1` (stereo not drawn) [Compound A12, 3-(4-((7-(4-(1-(4-((5-chloro-4-((2-(dimethylphosphoryl)phenyl)amino)pyrimidin-2-yl)amino)-3-methoxyphenyl)piperidin-4-yl)piperazin-1-yl)heptyl)amino)-1-oxoisoindolin-2-yl)piperidine-2,6-dione], the IC50 was 1 to 100 nM at EGFR^L858R/T790M/C797S, 101 to 200 nM against ALK^G1202R and 1 to 100 nM at ALK. Besides, the GI50 (in assay [1]; at Ba/F3(EML4-ALK) cells) was 1 to 100 nM throughout.
Take `COc1cc(N2CCC(N3CCN(CCCCCCCCCNc4cccc5c4CN(C4CCC(=O)NC4=O)C5=O)CC3)CC2)ccc1Nc1ncc(Cl)c(Nc2ccccc2P(C)(C)=O)n1` (stereo not drawn) [Compound A13, 3-(4-((9-(4-(1-(4-((5-chloro-4-((2-(dimethylphosphoryl)phenyl)amino)pyrimidin-2-yl)amino)-3-methoxyphenyl)piperidin-4-yl)piperazin-1-yl)nonyl)amino)-1-oxoisoindolin-2-yl)piperidine-2,6-dione]: the IC50 at EGFR^L858R/T790M/C797S was 101 to 200 nM; against ALK^G1202R it was > 300 nM; on ALK, 1 to 100 nM. Besides, the figures for the GI50 (in assay [1]; at Ba/F3(EML4-ALK) cells) were 101 to 200 nM and 1 to 100 nM, respectively.
In the case of `COc1cc(N2CCC(N3CCN(CC(=O)Nc4cccc5c4CN(C4CCC(=O)NC4=O)C5=O)CC3)CC2)ccc1Nc1ncc(Cl)c(Nc2ccccc2P(C)(C)=O)n1` (stereo not drawn) [Compound A17, 2-(4-(1-(4-((5-chloro-4-((2-(dimethylphosphoryl)phenyl)amino)pyrimidin-2-yl)amino)-3-methoxyphenyl)piperidin-4-yl)piperazin-1-yl)-N-(2-(2,6-dioxopiperidin-3-yl)-1-oxoisoindolin-4-yl)acetamide], the IC50 at EGFR^Del19/T790M/C797S and on EGFR^L858R/T790M/C797S was 1 to 100 nM in each case.
`COc1cc(N2CCC(N3CCN(CC(=O)N4CCC[C@H]4COc4cccc5c4C(=O)N(C4CCC(=O)NC4=O)C5=O)CC3)CC2)ccc1Nc1ncc(Cl)c(Nc2ccccc2P(C)(C)=O)n1` (stereo partly drawn) [Compound C109, 4-(((S)-1-(2-(4-(1-(4-((5-chloro-4-((2-(dimethylphosphoryl)phenyl)amino)pyrimidin-2-yl)amino)-3-methoxyphenyl)piperidin-4-yl)piperazin-1-yl)acetyl)pyrrolidin-2-yl)methoxy)-2-(2,6-dioxopiperidin-3-yl)isoindoline-1,3-dione]: the IC50 at EGFR^L858R/T790M/C797S, on ALK^G1202R and at ALK was 1 to 100 nM throughout. The GI50 in assay [1] is > 300 nM.
As to `COc1cc(N2CCC3(CCN(CCCCC#Cc4cccc5c4CN(C4CCC(=O)NC4=O)C5=O)CC3)CC2)c(C)cc1Nc1ncc(Br)c(Nc2ccc3nccnc3c2P(C)(C)=O)n1` (stereo not drawn) [Compound C187, 3-(4-(6-(9-(4-((5-bromo-4-((5-(dimethylphosphoryl)quinoxalin-6-yl)amino)pyrimidin-2-yl)amino)-5-methoxy-2-methylphenyl)-3,9-diazaspiro[5.5]undecan-3-yl)hex-1-yn-1-yl)-1-oxoisoindolin-2-yl)piperidine-2,6-dione], the IC50 at EGFR^Del19/T790M/C797S and at EGFR^L858R/T790M/C797S was 1 to 100 nM in each case. For the same compound, the GI50 (in assay [2]; at Ba/F3(EML4-ALK) cells) was 1 to 100 nM each time.
For the compound `COc1cc(N2CCC(N3CCN(CCCCCC#Cc4ccc5c(c4)CN(C4CCC(=O)NC4=O)C5=O)CC3)CC2)ccc1Nc1ncc(Cl)c(Nc2ccccc2P(C)(C)=O)n1` (stereo not drawn) [Compound C190, 3-(5-(7-(4-(1-(4-((5-chloro-4-((2-(dimethylphosphoryl)phenyl)amino)pyrimidin-2-yl)amino)-3-methoxyphenyl)piperidin-4-yl)piperazin-1-yl)hept-1-yn-1-yl)-1-oxoisoindolin-2-yl)piperidine-2,6-dione], the figures for the IC50 at ALK^G1202R and against ALK were 201 to 300 nM and 1 to 100 nM, respectively. In addition, the GI50 (in assay [2]; at Ba/F3(EML4-ALK) cells) was 1 to 100 nM throughout.
For `COc1cc(N2CCC(N3CCN(CCOCC#Cc4ccc5c(c4)CN(C4CCC(=O)NC4=O)C5=O)CC3)CC2)ccc1Nc1ncc(Cl)c(Nc2ccccc2P(C)(C)=O)n1` (stereo not drawn) [Compound C193, 3-(5-(3-(2-(4-(1-(4-((5-chloro-4-((2-(dimethylphosphoryl)phenyl)amino)pyrimidin-2-yl)amino)-3-methoxyphenyl)piperidin-4-yl)piperazin-1-yl)ethoxy)prop-1-yn-1-yl)-1-oxoisoindolin-2-yl)piperidine-2,6-dione], the IC50 on ALK^G1202R lay in the range of 201 to 300 nM; against ALK it was 1 to 100 nM. Also, the GI50 (in assay [2]; at Ba/F3(EML4-ALK) cells) was 1 to 100 nM in each case.
For the compound `COc1cc(N2CCC(N3CCN(CCCCCCC#Cc4ccc5c(c4)CN(C4CCC(=O)NC4=O)C5=O)CC3)CC2)ccc1Nc1ncc(Cl)c(Nc2ccccc2P(C)(C)=O)n1` (stereo not drawn) [Compound C194, 3-(5-(8-(4-(1-(4-((5-chloro-4-((2-(dimethylphosphoryl)phenyl)amino)pyrimidin-2-yl)amino)-3-methoxyphenyl)piperidin-4-yl)piperazin-1-yl)oct-1-yn-1-yl)-1-oxoisoindolin-2-yl)piperidine-2,6-dione], the IC50 was > 300 nM on ALK^G1202R and 1 to 100 nM against ALK. Further, the GI50 (in assay [2]; on Ba/F3(EML4-ALK) cells) was 1 to 100 nM each time.
